The subject of one test is H1299 cells. Briefly: Cell proliferation PAD assay, H1299. It is filed as cell-based. The note with it: Homo sapiens, 48 hours. The method, boiled down: (§1)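 Proliferation was scored by DAPI imaging of fixed cells, counting live, apoptotic and dead cells, after 48 h compound exposure at 37 °C, 5% CO2. Compound, dosed in duplicate 24 h post-plating (2,000 cells/well), came from 6.3-fold dilutions of a 10 mM stock diluted 500-fold.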

The next test relates to A549 cells. Briefly: Cell proliferation PAD assay, A549. It is filed as cell-based. The note with it: Homo sapiens, 48 hours. In outline:
as §1

The target in the next test is T1, TRAF6/Uev1A/Ubc13 (Homo sapiens, UniProt Q9Y4K3).
T1 sequence (Q9Y4K3 1-522): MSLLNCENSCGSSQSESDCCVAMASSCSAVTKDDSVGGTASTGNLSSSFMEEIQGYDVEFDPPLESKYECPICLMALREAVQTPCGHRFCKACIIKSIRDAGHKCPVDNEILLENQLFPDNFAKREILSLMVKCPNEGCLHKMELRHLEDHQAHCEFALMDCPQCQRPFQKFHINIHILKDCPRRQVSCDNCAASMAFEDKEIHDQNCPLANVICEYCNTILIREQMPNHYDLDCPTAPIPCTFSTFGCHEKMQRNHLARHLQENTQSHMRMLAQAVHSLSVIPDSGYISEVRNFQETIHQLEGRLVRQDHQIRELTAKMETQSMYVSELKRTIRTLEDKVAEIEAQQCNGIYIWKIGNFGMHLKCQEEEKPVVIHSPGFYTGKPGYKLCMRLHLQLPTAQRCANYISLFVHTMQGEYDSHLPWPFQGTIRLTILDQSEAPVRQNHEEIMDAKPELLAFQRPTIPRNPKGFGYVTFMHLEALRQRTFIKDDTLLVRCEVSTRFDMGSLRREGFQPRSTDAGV
The experiment in a line: TRAF6/Uev1A/Ubc13 plate-based ubiquitin ligase assay. It is filed as biochemical. In outline: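 Ligase activity was read as luminescence from anti-Flag/HRP detection of Flag-ubiquitin bound to casein-blocked Ni-plates alongside His-ubiquitin after a 1 h room-temperature reaction. Buffer: 62.5 mM Tris pH 7.5, 6.25 mM MgCl2, 1.0 mM DTT, 2 μM ATP; E1, Uev1a/Ubc13 and TRAF6 added last to start. IC50s derived across compound concentrations.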

Where [1] appears, read: NCI-H1299, 3pt, read-out: H1299 3pt.

Read-outs that look alike come from different tables or passages of the source.

`O=[N+]([O-])c1ccc(N2CCN(CCN3CCOCC3)CC2)c2nonc12` [compound 85, 4-[4-(2-morpholin-4-ylethyl)piperazin-1-yl]-7-nitro-2,1,3-benzoxadiazole]: the IC50 in the test on H1299 cells (setting [1]) was at least 20 µM; in the test on A549 cells (3pt, read-out: A549 3pt) it was at least 20 µM; on TRAF6/Uev1A/Ubc13 it was at least 20 µM.
Take `O=S(=O)(Nc1cccc2nonc12)c1ccc(Oc2cccnc2)cc1` [compound 86, N-2,1,3-benzoxadiazol-4-yl-4-(pyridin-3-yloxy)benzenesulfonamide]: the IC50 is at least 20 µM with H1299 cells (setting [1]); at least 20 µM in the test with A549 cells (3pt, read-out: A549 3pt); at least 20 µM on TRAF6/Uev1A/Ubc13.
As for `O=S(=O)(Nc1cccc2nonc12)c1ccc(Oc2ccccc2)cn1` [compound 87, N-2,1,3-benzoxadiazol-4-yl-5-phenoxypyridine-2-sulfonamide], the IC50 was at least 20 µM in the test with H1299 cells (setting [1]); at least 20 µM with A549 cells (3pt, read-out: A549 3pt); at least 20 µM against TRAF6/Uev1A/Ubc13.
With `CC(=O)N1CCN(c2ccc([N+](=O)[O-])c3nonc23)CC1` [compound 88, 4-(4-acetylpiperazin-1-yl)-7-nitro-2,1,3-benzoxadiazole], the IC50 with H1299 cells (setting [1]) was at least 20 µM; with A549 cells (3pt, read-out: A549 3pt), at least 20 µM; against TRAF6/Uev1A/Ubc13, at least 20 µM.
Turning to `O=S(=O)(Nc1ccc(Oc2ncccn2)c(Cl)c1)c1cccc2nonc12` [compound 91, N-[3-chloro-4-(pyrimidin-2-yloxy)phenyl]-2,1,3-benzoxadiazole-4-sulfonamide], the IC50 in the test with H1299 cells (setting [1]) was at least 20 µM; with A549 cells (3pt, read-out: A549 3pt), at least 20 µM; on TRAF6/Uev1A/Ubc13, at least 20 µM.
As to `O=S(=O)(Nc1cccc2nonc12)c1ccc(Oc2ccccc2)cc1` [compound 93, N-2,1,3-benzoxadiazol-4-yl-4-phenoxybenzenesulfonamide], the IC50 in the test with H1299 cells (NCI-H1299, 6pt, read-out: H1299 6pt) is at least 20 µM; with A549 cells (6pt, read-out: A549 6pt), at least 20 µM; on TRAF6/Uev1A/Ubc13, 1 to 20 µM.
With `O=[N+]([O-])c1ccc(Oc2ccc(NS(=O)(=O)c3cccc4nonc34)cc2)cc1` [compound 101, N-[4-(4-nitrophenoxy)phenyl]-2,1,3-benzoxadiazole-4-sulfonamide], the IC50 in the test on H1299 cells (setting [1]) was at least 20 µM; with A549 cells (3pt, read-out: A549 3pt), at least 20 µM; against TRAF6/Uev1A/Ubc13, at least 20 µM.
`O=S(=O)(Nc1ccc(Oc2ccccc2)cc1)c1cccc2nonc12` [compound 102, N-(4-phenoxyphenyl)-2,1,3-benzoxadiazole-4-sulfonamide]: the IC50 in the test with H1299 cells (setting [1]) was at least 20 µM; in the test with A549 cells (3pt, read-out: A549 3pt), at least 20 µM; at TRAF6/Uev1A/Ubc13, at least 20 µM.
Turning to `O=S(=O)(Nc1ccc(Oc2cc(C(F)(F)F)ccn2)cc1)c1cccc2nonc12` [compound 103, N-(4-{[4-(trifluoromethyl)pyridin-2-yl]oxy}phenyl)-2,1,3-benzoxadiazole-4-sulfonamide], the IC50 with H1299 cells (setting [1]) was at least 20 µM; with A549 cells (3pt, read-out: A549 3pt) it was at least 20 µM; at TRAF6/Uev1A/Ubc13, at least 20 µM.
For the molecule `O=S(=O)(Nc1ccc(Oc2ccc(Cl)cc2)cc1)c1cccc2nonc12` [compound 104, N-[4-(4-chlorophenoxy)phenyl]-2,1,3-benzoxadiazole-4-sulfonamide], the IC50 in the test with H1299 cells (setting [1]) is at least 20 µM; in the test on A549 cells (3pt, read-out: A549 3pt), at least 20 µM; at TRAF6/Uev1A/Ubc13, at least 20 µM.
On to `O=[N+]([O-])c1ccc(N2CCN(c3ccc(Cl)c(C(F)(F)F)c3)CC2)c2nonc12` [compound 105, {4-[4-chloro-3-(trifluoromethyl)phenyl]piperazin-1-yl}-7-nitro-2,1,3-benzoxadiazole], for which the IC50 in the test on H1299 cells (setting [1]) is at least 20 µM; in the test on A549 cells (3pt, read-out: A549 3pt), at least 20 µM; against TRAF6/Uev1A/Ubc13 it was at least 20 µM.
Turning to `O=[N+]([O-])c1ccc(N2CCN(c3cccc(C(F)(F)F)c3)CC2)c2nonc12` [compound 106, 4-nitro-7-{4-[3-(trifluoromethyl)phenyl]piperazin-1-yl}-2,1,3-benzoxadiazole], the IC50 was at least 20 µM with H1299 cells (setting [1]); at least 20 µM in the test on A549 cells (3pt, read-out: A549 3pt); at least 20 µM on TRAF6/Uev1A/Ubc13.
Turning to `O=[N+]([O-])c1ccc(N2CCN(c3ccncc3)CC2)c2nonc12` [compound 108, 4-nitro-7-(4-pyridin-4-ylpiperazin-1-yl)-2,1,3-benzoxadiazole], the IC50 with H1299 cells (setting [1]) was at least 20 µM; with A549 cells (3pt, read-out: A549 3pt), 1 to 20 µM; at TRAF6/Uev1A/Ubc13, at least 20 µM.
With `CN1CCN(c2ccc([N+](=O)[O-])c3nonc23)CC1` [compound 110, 4-(4-methylpiperazin-1-yl)-7-nitro-2,1,3-benzoxadiazole], the IC50 in the test on H1299 cells (setting [1]) is at least 20 µM; with A549 cells (3pt, read-out: A549 3pt), at least 20 µM; against TRAF6/Uev1A/Ubc13 it was at least 20 µM.
As to `O=[N+]([O-])c1ccc(N2CCNCC2)c2nonc12` [compound 112, 4-nitro-7-piperazin-1-yl-2,1,3-benzoxadiazole], the IC50 was at least 20 µM in the test with H1299 cells (setting [1]); at least 20 µM in the test with A549 cells (3pt, read-out: A549 3pt); at least 20 µM against TRAF6/Uev1A/Ubc13.
With `O=S(=O)(Nc1cccc2nsnc12)c1ccc(Oc2cccnc2)cc1` [compound 116, N-2,1,3-benzothiadiazol-4-yl-4-(pyridin-3-yloxy)benzenesulfonamide], the IC50 in the test on H1299 cells (setting [1]) was at least 20 µM; in the test with A549 cells (3pt, read-out: A549 3pt), 1 to 20 µM; at TRAF6/Uev1A/Ubc13, at least 20 µM.
On to `N#Cc1cccnc1N1CCN(c2ccc([N+](=O)[O-])c3nonc23)CC1` [compound 118, 2-[4-(7-nitro-2,1,3-benzoxadiazol-4-yl)piperazin-1-yl]nicotinonitrile], for which the IC50 in the test with H1299 cells (setting [1]) was at least 20 µM; in the test with A549 cells (3pt, read-out: A549 3pt), at least 20 µM; at TRAF6/Uev1A/Ubc13 it was 1 to 20 µM.
As for `O=S(=O)(Oc1ccc(N2CCN(S(=O)(=O)c3cccc4nonc34)CC2)cc1)c1cccc2nonc12` [compound 139, 4-[4-(2,1,3-benzoxadiazol-4-ylsulfonyl)piperazin-1-yl]phenyl 2,1,3-benzoxadiazole-4-sulfonate], the IC50 is at least 20 µM in the test with H1299 cells (setting [1]); at least 20 µM in the test on A549 cells (3pt, read-out: A549 3pt); 1 to 20 µM at TRAF6/Uev1A/Ubc13.
Take `O=[N+]([O-])c1ccc(N2CCN(c3ccccc3)CC2)c2nonc12` [compound 143, 4-nitro-7-(4-phenylpiperazin-1-yl)-2,1,3-benzoxadiazole]: the IC50 is at least 20 µM with H1299 cells (setting [1]); at least 20 µM in the test on A549 cells (3pt, read-out: A549 3pt); at least 20 µM on TRAF6/Uev1A/Ubc13.
As to `O=[N+]([O-])c1ccc(N2CCN(c3c(Cl)cncc3Cl)CC2)c2nonc12` [compound 151, 4-[4-(3,5-dichloropyridin-4-yl)piperazin-1-yl]-7-nitro-2,1,3-benzoxadiazole], the IC50 was at least 20 µM in the test on H1299 cells (setting [1]); at least 20 µM in the test with A549 cells (3pt, read-out: A549 3pt); 1 to 20 µM against TRAF6/Uev1A/Ubc13.
Consider `Cc1cc(N2CCN(c3ccc([N+](=O)[O-])c4nonc34)CC2)c2ccccc2n1` [compound 152, 2-methyl-4-[4-(7-nitro-2,1,3-benzoxadiazol-4-yl)piperazin-1-yl]quinoline], for which the IC50 in the test with H1299 cells (setting [1]) was 1 to 20 µM; with A549 cells (3pt, read-out: A549 3pt), 1 to 20 µM; against TRAF6/Uev1A/Ubc13, at least 20 µM.
As to `Cc1ccnc(N2CCN(c3ccc([N+](=O)[O-])c4nonc34)CC2)c1` [compound 154, 4-[4-(4-methylpyridin-2-yl)piperazin-1-yl]-7-nitro-2,1,3-benzoxadiazole], the IC50 was at least 20 µM with H1299 cells (setting [1]); at least 20 µM in the test on A549 cells (3pt, read-out: A549 3pt); at least 20 µM against TRAF6/Uev1A/Ubc13.
With `O=[N+]([O-])c1ccc(N2CCN(c3ccc4ccccc4n3)CC2)c2nonc12` [compound 155, 2-[4-(7-nitro-2,1,3-benzoxadiazol-4-yl)piperadin-1-yl]quinoline], the IC50 in the test with H1299 cells (setting [1]) was at least 20 µM; with A549 cells (3pt, read-out: A549 3pt), at least 20 µM; against TRAF6/Uev1A/Ubc13, 1 to 20 µM.
Consider `Cc1cccnc1N1CCN(c2ccc([N+](=O)[O-])c3nonc23)CC1` [compound 156, 4-[4-(3-methylpyridin-2-yl)piperazin-1-yl]-7-nitro-2,1,3-benzoxadiazole], for which the IC50 in the test on H1299 cells (setting [1]) was at least 20 µM; with A549 cells (3pt, read-out: A549 3pt) it was at least 20 µM; against TRAF6/Uev1A/Ubc13 it was at least 20 µM.
For the molecule `O=c1[nH]c2ccccc2n1C1CCN(c2ccc([N+](=O)[O-])c3nonc23)CC1` [compound 160, 1-[1-(7-nitro-2,1,3-benzoxadiazol-4-yl)piperidin-4-yl]-1,3-dihydro-2H-benzimidazol-2-one], the IC50 in the test with H1299 cells (setting [1]) is at least 20 µM; with A549 cells (3pt, read-out: A549 3pt), at least 20 µM; on TRAF6/Uev1A/Ubc13, at least 20 µM.
On to `CC1CN(c2ccc([N+](=O)[O-])c3nonc23)CC(C)O1` (stereo not drawn) [compound 161, 4-(2,6-dimethylmorpholin-4-yl)-7-nitro-2,1,3-benzoxadiazole], for which the IC50 in the test on H1299 cells (setting [1]) is at least 20 µM; in the test on A549 cells (3pt, read-out: A549 3pt), at least 20 µM; on TRAF6/Uev1A/Ubc13 it was at least 20 µM.
For `Cc1cccc(N2CCN(c3ccc([N+](=O)[O-])c4nonc34)CC2)n1` [compound 162, 4-[4-(6-methylpyridin-2-yl)piperazin-1-yl]-7-nitro-2,1,3-benzoxadiazole], the IC50 with H1299 cells (setting [1]) was at least 20 µM; in the test on A549 cells (3pt, read-out: A549 3pt), at least 20 µM; on TRAF6/Uev1A/Ubc13 it was at least 20 µM.

(Values after patent publication US20050282818A1, “Ubiquitin ligase inhibitors” (Rigel Pharmaceuticals, Inc., priority 2004, published 2005).)
